Results taken from patent publication EP0441832B1, “COMPOSITION AND TREATMENT WITH BIOLOGICALLY ACTIVE PEPTIDES AND CERTAIN ANIONS” (THE CHILDREN'S HOSPITAL OF PHILADELPHIA, priority 1988, dated 1990).
Where two headings read alike, the source gives them in different places. Ends that are not written are not given here.

Assays:
Assay type in all cases: cell-based
ENTEROBACTER CLOACAE = system: ENTEROBACTER CLOACAE
Method: (§1) Approximately 1,000 bacteria were seeded into about 200 ul of trypticase soy broth. Either magainin 2 carboxy terminal amide, PGLa, or ALSKALSK ALSKALSKALSKALSK (Z-44) were added in increasing concentrations in the absence (Panel A) or presence (Panel B) of 50 mM NaF.

PSEUDOMONAS AERUGINOSA = conditions: Panel A: Absence of NaF; approx. 1,000 bacteria in about 200 ul trypticase soy broth
Method: as §1

E. cloacae = test: Killing of bacteria: 15 min incubation in trypticase soy broth, then plating for viable organisms
Method: If 10⁷ E. cloacae organisms are inoculated into 1 ml of TSB in the presence of 60 ug/ml of MGN2, about 10⁶ bacteria are found to be viable on plating. […] The effective killing power of this antibiotic at a given concentration has been potentiated over 1 million-fold by the addition of fluoride.
LEGEND: Organisms were incubated in a volume of 1 ml in either trypticase soy broth alone or containing substances noted for 15 min at 37 °C. An aliquot was then diluted and plated to determine number of viable organisms.

[1] = peptide 60ug/ml + NaF 25 mM, 10⁷ organisms in 1 ml TSB, 15 min at 37 C

Substance | MINIMAL INHIBITORY CONCENTRATION (ENTEROBACTER CLOACAE) | MINIMAL INHIBITORY CONCENTRATION (ENTEROBACTER CLOACAE; Panel A: Absence of NaF, approx. 1,000 bacteria in about 200 ul trypticase soy broth, listed as MGN2 (Magainin II)) | MINIMAL INHIBITORY CONCENTRATION (PSEUDOMONAS AERUGINOSA) | bacteria viable on plating (E. cloacae; 60 ug/ml peptide + 50 mM NaF, 10⁷ organisms in 1 ml TSB) | potentiation of effective killing power by the addition of fluoride (E. cloacae; 60 ug/ml peptide, with vs without NaF) | CFU (E. cloacae; [1]) | EOP (% viable) (E. cloacae; [1]) | EOP (% viable) (E. cloacae; peptide 60ug/ml alone, 10⁷ organisms in 1 ml TSB, 15 min at 37 C) | EOP (% viable) (E. cloacae; NaF 25mM alone, 10⁷ organisms in 1 ml TSB, 15 min at 37 C)
GIGKFLHSAKKFGKAFVGEIMNS-NH2 [MGN2] | exceeded 500 ug/ml | MGN2 (Magainin II) >500 ug/ml | MGN 2 250-500 ug/ml | all bacteria are killed | over 1 million | 0 | 0% | 90% | –
sodium fluoride [NaF] | – | – | – | – | – | – | – | – | 100%
